Here are results for four molecules from PMC3341351, “Down-Regulation of GABAA Receptor via Promiscuity with the Vasoactive Peptide Urotensin II Receptor. Potential Involvement in Astrocyte Plasticity” (PLoS ONE, 2012).

The subject of assay [1] is α2β3γ2 GABAAR in the absence of UT. Kind of assay: Patch-clamp of Iso-evoked current in CHO expressing α2β3γ2 GABAAR without UT. It counts as cell-based. The note with it: DMCM 10^−5 M; hUII and URP 10^−8 M; [Orn^5]-URP and palosuran 10^−6 M; Iso 10^−4 M, 2 s; n = 3–18. The protocol: (§1) For transfection, cells were trypsinized (0.05%), triturated in HamF-12 containing 10% FBS media, pelleted by centrifugation, resuspended in 100 µl solution V for nucleofection by an Amaxa Nucleofector Device (Köln, Germany; set to program U-016). Experiments were performed on normal CHO or on the stable CHO-UT cells and transiently transfected with combinations of cDNA encoding α2β3γ2, α2β3γ1, α2β1γ2, α2β3γ1, α2β3, β3γ2 (4 µg of cDNA total/transfection) GABAAR subunits. Cells were seeded on 14-mm poly-L-lysine-coated glass bottom insert dishes at 5×10^5 cells in a volume of 0.5 ml/dish. Cells were incubated overnight at 37°C in a humidified incubator (5% CO2) during 16 h before electrophysiological or immunocytochemical experiments.
(§2) GABAA receptor cDNA clones; α2, β1, β3, γ1 and γ2L engineered into the expression vector pCDM8 ([…], β1, γ2) or pcDNA/Amp (β3, γ1), were generously provided by Dr Wingrove (Merk Sharp and Dohme, Harlow, UK). To obtain β3 ^HA or γ2 ^HA epitope-tagged subunits, β3 or γ2 cDNA was amplified and the PCR product was subcloned using the SalI and NotI sites of pCMV-HA (Table S2) after digestion by the same restriction enzymes.
The conventional whole-cell configuration of the patch-clamp technique was used to study the GABA-gated currents in astrocytes and granule neurons, UT stably transfected CHO, CHO-UT, and CHO transiently transfected with diverse variants of UT and GABAAR subunits. After 24-h transfection, cell culture coverslips were placed in a small chamber (1.5 ml) on a stage of a right microscope DMLFSA (Leica, Heidelberg, Germany) and superfused continuously with the following bath solution containing (in mM): NaCl, 150; KCl, 2.5; HEPES, 5; CaCl2, 2; MgCl2, 1; glucose, 10 (pH 7.4 adjusted with NaOH). The patch pipettes were fabricated from 1.5 mm (outer diameter) soft glass tubes on a two-step vertical pipette puller (List-Medical, L/M-3P-A, Darmstadt, Germany). […] ATP and GTP were added to the internal solution used to fill electrode just before recording. All recordings were obtained at RT with cells voltage-clamped at −70 mV. The GABAA receptor agonist isoguvacine was prepared in the extracellular solution and was applied to cells by pneumatic pressure ejection. To prevent desenzitization, isoguvacine was more often ejected during 5 s at 2-min intervals. ATP, GTP, or guanosine 5′-O-(2-thiodiphosphate) (GDPβS) were administered through the patch pipette solution. We investigated the effect of competitive inhibition of GDP-GTP exchange by including GDPβS in the pipette solution (in addition to the normal amount of GTP). For GDPβS and the KIC, immediately following patch rupture, GABA current recordings were performed and the experiment was commenced after an equilibration period of 15 min. […]

In assay [2] the target is T1, human UT (Homo sapiens, UniProt Q9UKP6).
T1 construct: expressed in transfected cells; host or cells: CHO-K1 electroporated with pIRES-neo2-UT, G-418 selected
T1 sequence (Q9UKP6 1-389): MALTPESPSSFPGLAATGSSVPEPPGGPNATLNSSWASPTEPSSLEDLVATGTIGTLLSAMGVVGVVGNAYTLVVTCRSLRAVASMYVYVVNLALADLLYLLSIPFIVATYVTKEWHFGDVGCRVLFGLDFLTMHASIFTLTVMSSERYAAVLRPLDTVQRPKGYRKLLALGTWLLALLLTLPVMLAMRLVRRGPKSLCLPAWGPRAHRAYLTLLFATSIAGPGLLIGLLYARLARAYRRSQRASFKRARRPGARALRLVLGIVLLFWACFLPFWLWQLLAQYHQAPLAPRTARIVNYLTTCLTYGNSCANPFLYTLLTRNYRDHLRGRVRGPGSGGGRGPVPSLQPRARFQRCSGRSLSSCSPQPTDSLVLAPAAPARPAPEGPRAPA
Put plainly: Fura-2 calcium imaging ([Ca^2+]c) in CHO-UT. It counts as cell-based. The protocol:
(§3) CHO-K1 cell lines were obtained from American Type Culture Collection (Manassas, VA, USA). The human UT stable CHO (CHO-UT) was generously provided by Dr Christophe Dubessy (Inserm, Rouen University, France) et generated by CHO electroporation with 20 µg pIRES-neo2-UT DNA and 500 µg sterile sonicated salmon sperm DNA using the EasyJect One electroporation system (Equibio, Angleur, Belgium), followed by repetitive rounds of limiting dilution of cells in G-418 (400 µg/ml) for selection. Normal or stable CHO was grown in Ham-F12 medium supplemented with 10% FBS, 1% antibiotic-antimicotic solution and 2 mM glutamine, at 37°C in a humidified incubator with an atmosphere of 5% CO2. The stable CHO-UT medium was supplemented with the antibiotic G-418 (40 µg/ml).
For cell calcium imaging, Fura-2 AM (5 mM, Molecular Probe; Fisher, Cergy-Pontoise, France) was dissolved in 20% pluronic F-127 (w/v, DMSO) and then added to culture medium at final concentrations of 5 µM and 0.02%, with 2.5 mM probenecid (Sigma-Aldrich) respectively. Cells were incubated in the dye solution for 1 h in an humidified atmosphere (37°C, 5% CO2) and then rinsed in the standard extracellular solution used for patch-clamp experiments. For simultaneous measurements of intracellular calcium and chloride-evoked currents in CHO, patch-clamp electrodes were filled with an internal solution containing : KCl, 140; MgCl2, 4; Fura-2-pentoK, 0.25; HEPES, 10; ATP, 1; GTP, 0.1 (pH 7.4 adjusted with KOH). Fluorescence images were acquired with the right microscope DMLFSA (Leica) equipped with a digital CCD camera Coolsnap HQ (Photometrics, Roper scientific, Evry, France). A high-speed scanning polychromatic light source was used for alternate excitations at wavelenghts of 340 and 380 nm. The fluorescence intensities at both wavelenghts (F340 and F380) were mesured every 500 ms. Image acquisition and analysis were obtained with a MetaFluor/Metamorph Imaging System (Roper scientific). The ratio between the two images was proportional to the [Ca^2+]c in the cell under study. Before an experiment, the bath ground level of fluorescence (attributable to autofluorescence and camera noise) was determined and systematically substracted.

Assay [3] has as its target T1, human UT. The settings on record: ref [54], [55]; cited from earlier work.
The target of assay [4] is T2, α2β3γ2 GABAAR co-expressed with human UT (Homo sapiens, UniProt Q9UKP6).
T2 construct: expressed in transfected cells; host or cells: CHO-K1 stably expressing human UT (pIRES-neo2-UT), transiently nucleofected with GABAAR subunit cDNAs
T2 sequence (Q9UKP6 1-389): T1 sequence (Q9UKP6 1-389)
Kind of assay: Patch-clamp of Iso-evoked current in CHO-UT co-expressing α2β3γ2 GABAAR (CHO-UT-GABAAR). The assay is classed as cell-based. The protocol: as §3, §1, §2
The conventional whole-cell configuration of the patch-clamp technique was used to study the GABA-gated currents in astrocytes and granule neurons, UT stably transfected CHO, CHO-UT, and CHO transiently transfected with diverse variants of UT and GABAAR subunits. After 24-h transfection, cell culture coverslips were placed in a small chamber (1.5 ml) on a stage of a right microscope DMLFSA (Leica, Heidelberg, Germany) and superfused continuously with the following bath solution containing (in mM): NaCl, 150; KCl, 2.5; HEPES, 5; CaCl2, 2; MgCl2, 1; glucose, 10 (pH 7.4 adjusted with NaOH). The patch pipettes were fabricated from 1.5 mm (outer diameter) soft glass tubes on a two-step vertical pipette puller (List-Medical, L/M-3P-A, Darmstadt, Germany). […] ATP and GTP were added to the internal solution used to fill electrode just before recording. All recordings were obtained at RT with cells voltage-clamped at −70 mV. The GABAA receptor agonist isoguvacine was prepared in the extracellular solution and was applied to cells by pneumatic pressure ejection. To prevent desenzitization, isoguvacine was more often ejected during 5 s at 2-min intervals. ATP, GTP, or guanosine 5′-O-(2-thiodiphosphate) (GDPβS) were administered through the patch pipette solution. We investigated the effect of competitive inhibition of GDP-GTP exchange by including GDPβS in the pipette solution (in addition to the normal amount of GTP). For GDPβS and the KIC, immediately following patch rupture, GABA current recordings were performed and the experiment was commenced after an equilibration period of 15 min.
All peptide ligands, inhibitors or allosteric modulators of the GABAA receptor function were applied via gravity through a plastic tubing positioned in the vicinity of the cell body in order to maintain a sustained perfusion. In these conditions, drugs could reach the cell of interest after 30 s of perfusion. Isoguvacine was applied focally by pneumatic pressure ejection from a micropipette.
(In general: Patch clamp records ionic current or voltage across a cell membrane.)

The target in assay [5] is T3, human urotensin II receptor UT, stably expressed in CHO (CHO-UT) (human) (UniProt Q9UKP6).
T3 sequence: T1 sequence (Q9UKP6 1-389)

Assay [6] concerns the target T3, human urotensin II receptor UT, stably expressed in CHO (CHO-UT) (human). This is another data set of the same source.

“Also recorded” adds a separate entry of the source. Where no end group is shown, it is not given here.

With `Cc1cc(NC(=O)NCCN2CCC(O)(Cc3ccccc3)CC2)c2ccccc2n1.O=S(=O)(O)O` [palosuran, 1-[2-(4-benzyl-4-hydroxy-piperidin-1-yl)-ethyl]-3-(2-methyl-quinolin-4-yl) -urea sulfate salt], the “Effect on Iso-evoked current in the absence of UT” value in assay [1] was “did not modulate the Iso-evoked current”. Moreover, on human UT [2] (10^−6 M), the “Effect/profile of antagonist on [Ca^2+]c” value is “failed to evoke a [Ca^2+]c rise”. Besides, the “Effect on hUII-induced [Ca^2+]c increase” value on human UT [2] (antagonist 10^−6 M before and during hUII) was “completely blocked the hUII-induced [Ca^2+]c increase; also recorded: counteracts the UII-evoked [Ca^2+]c increase”. Further, the “Affinity toward human UT” value at human UT [3] is “high affinity”. Also, the “Effect of UT antagonist alone on Iso-evoked current” value in assay [4] (10^−6 M, n = 7–54) is “mimicked the hUII-induced inhibition of the Iso-evoked current; also recorded: mimics the effect of UII by inhibiting the chloride current”. Also, the “Effect on prolonged/irreversible action of hUII during washout on Iso-evoked current” value in assay [4] (antagonist 10^−6 M with hUII) is given as “abolished the irreversible action of hUII during washout”.

On to “URP: paralog urotensin II-related peptide sharing the fully conserved C-terminal cyclic CFWKYC core”, for which the “Effect on Iso-evoked current in the absence of UT” value in assay [1] was “failed to affect the amplitude of the current”. Also, in the assay with human UT [2] (10^−8 M), the “Reversibility of [Ca^2+]c increase during washout” value is reported as “totally recovered after 16-min washout; also recorded: recovered to the basal line level”. Further, the “Increase of the amplitude of baseline [Ca^2+]c” value with human UT [2] (hUII and URP 10^−8 M, [Orn^5]-URP 10^−6 M, mean from 9 to 25 cells) is given as 341%. For the same molecule, the “Inhibition of Iso-evoked current” value in assay [4] (10^−8 M, Iso 10^−4 M, mean ± SEM, hUII n = 54, URP n = 12) is given as 22.9±3.5%. The “Persistence/reversibility of current inhibition during washout” value in assay [4] (10^−8 M, Iso-evoked current) is “slightly recovered during washout; also recorded: triggers a reversible inhibition”.

For [Orn^5]-URP (peptide), in assay [5], the [Ca^2+]c increase (Fura-2 imaging) in CHO-UT, [Orn^5]-URP 10^-6 M; behaved as a partial agonist and prevented the sustained effect of hUII on [Ca^2+]c came to 265%.

ACFWKYCV (also: cyclic CFWKYC core, bridge type not given here) [urotensin II-related peptide] returned an increase of the amplitude of baseline [Ca^2+]c (Fura-2 imaging) in CHO-UT, URP 10^-8 M in the bath; recovered after 16-min washout in assay [5] of 341%. The molecule also returned an inhibition of the isoguvacine-evoked chloride current (whole-cell patch clamp) in CHO-UT co-expressing alpha2beta3gamma2 GABAAR, URP 10^-8 M (n = 12) in assay [6] of 22.9%.
